Test results taken from the NIST ThermoML archive (doi:10.1016/j.jct.2015.12.021).

Conditions: Liquid

CCCCCCC [heptane]
viscosity [mPa·s]
Conditions	293.15 K	298.15 K	313.15 K	333.15 K	353.15 K	363.15 K
100 kPa, Vibrating wire viscometry	0.4151	0.3914	0.3379	0.2821	0.2406	0.2224
1000 kPa, Vibrating wire viscometry	0.4202	0.3962	0.3412	0.2844	0.2435	0.2254
5000 kPa, Falling or rolling sphere viscometry	0.4359	–	0.3564	–	–	–
5000 kPa, Vibrating wire viscometry	0.4354	0.4142	0.354	0.2965	0.2549	0.2374
10000 kPa, Falling or rolling sphere viscometry	0.4603	–	0.3756	–	–	–
10000 kPa, Vibrating wire viscometry	0.4579	0.4329	0.3735	0.3121	0.2672	0.2493
20000 kPa, Falling or rolling sphere viscometry	0.5074	–	0.4131	–	–	–
20000 kPa, Vibrating wire viscometry	0.5013	0.4756	0.4074	0.3415	0.2957	0.2757
30000 kPa, Falling or rolling sphere viscometry	0.5517	–	0.4518	–	–	–
30000 kPa, Vibrating wire viscometry	0.5459	0.5175	0.4462	0.3746	0.3216	0.2996
40000 kPa, Falling or rolling sphere viscometry	0.5949	–	0.4899	–	–	–
40000 kPa, Vibrating wire viscometry	0.595	0.5613	0.4806	0.4061	0.3493	0.3252
50000 kPa, Vibrating wire viscometry	0.6406	0.6081	0.5208	0.4355	0.373	0.3504
60000 kPa, Falling or rolling sphere viscometry	0.6912	–	0.5683	–	–	–
60000 kPa, Vibrating wire viscometry	0.6927	0.6535	0.5563	0.4681	0.4019	0.3754
70000 kPa, Vibrating wire viscometry	0.7446	0.7026	0.5992	0.5022	0.4304	0.3978
80000 kPa, Falling or rolling sphere viscometry	0.7864	–	0.6498	–	–	–
80000 kPa, Vibrating wire viscometry	0.7965	0.7519	0.64	0.5337	0.457	0.4243
100000 kPa, Falling or rolling sphere viscometry	0.9027	–	0.7309	–	–	–
100000 kPa, Vibrating wire viscometry	0.9106	0.8572	0.7259	0.603	0.5119	0.4782
120000 kPa, Falling or rolling sphere viscometry	1.031	–	0.8186	–	–	–
120000 kPa, Vibrating wire viscometry	1.028	0.972	0.8176	0.6736	0.5735	0.5314
140000 kPa, Vibrating wire viscometry	1.16	1.089	0.9137	0.7509	0.6335	0.5865

Cc1ccccc1 [toluene]
viscosity [mPa·s], Vibrating wire viscometry
Conditions	293.15 K	298.15 K	313.15 K	323.15 K	333.15 K	348.15 K	353.15 K	373.15 K
100 kPa	0.5907	0.5555	0.469	0.4214	0.3804	0.3302	0.3163	0.2667
1000 kPa	0.5928	0.5603	0.4746	0.4238	0.3856	0.3361	0.3177	0.2671
5000 kPa	0.6152	0.5772	0.4885	0.4385	0.3986	0.3457	0.3319	0.2782
10000 kPa	0.6387	0.6006	0.5046	0.4551	0.4153	0.3588	0.3449	0.2893
20000 kPa	0.6881	0.6478	0.5496	0.4877	0.4495	0.3876	0.3701	0.315
30000 kPa	0.7354	0.692	0.5914	0.5293	0.4794	0.418	0.4006	0.3401
40000 kPa	0.7913	0.7442	0.6239	0.565	0.5135	0.4485	0.4291	0.3643
50000 kPa	0.8532	0.7983	0.6704	0.6021	0.5485	0.4795	0.462	0.3876
60000 kPa	0.908	0.8463	0.7133	0.6377	0.5835	0.5089	0.4919	0.4138
70000 kPa	0.9632	0.9027	0.7572	0.6789	0.6187	0.5441	0.5176	0.4372
80000 kPa	1.022	0.9625	0.8098	0.7322	0.6579	0.5721	0.5478	0.4649
100000 kPa	1.149	1.081	0.9082	0.809	0.7353	0.6407	0.6113	0.5193
120000 kPa	1.287	1.211	1.009	0.9034	0.8176	0.7088	0.6825	–
140000 kPa	1.456	1.349	1.128	1.004	0.9111	0.7836	0.755	–
